US10385069B2, “Imidazo[2,1-B]thiazole and 5,6-dihydroimidazo[2,1-B]thiazole derivatives useful as S100-inhibitors” (Active Biotech AB, priority 2015, dated 2019)

Target: T1, interaction between biotinylated human S100A9 and human RAGE-Fc (Homo sapiens, UniProt P06702)
T1 construct: made in house; host or cells: E. coli
T1 sequence (P06702 1-114): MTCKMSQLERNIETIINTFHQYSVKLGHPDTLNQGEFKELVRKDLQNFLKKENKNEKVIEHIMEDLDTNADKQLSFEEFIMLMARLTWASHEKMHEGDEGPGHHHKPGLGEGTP
Experiment: AlphaScreen inhibition assay, biot-hS100A9:hRAGE-Fc
Assay type: binding
Conditions: biot-hS100A9 pre-incubated with compound 1 h, assay buffer with CaCl2 and ZnCl2
Text: Inhibition Assay, Biot-hS100A9:hRAGE-Fc
The AlphaScreen (Amplified Luminescent Proximity Homogeneous Assay) contains two types of beads, Alpha Donor beads and Acceptor beads (PerkinElmer). Upon laser excitation at 680 nm a photosensitizer in the Donor bead converts ambient oxygen to a more excited singlet state. The singlet oxygen molecule diffuses (maximum 200 nm) to react with a thioxene derivative in the Acceptor bead and generates a chemiluminescence reaction. Fluorophores in the Acceptor bead subsequently emit light at 520-620 nm which can be detected in the EnVision® Multilabel plate Reader (PerkinElmer). The beads are light sensitive and all work with the beads is performed under subdued light conditions or using green filters on light sources (Roscolux Chroma Green #389, Rosco).
In the AlphaScreen Inhibition Assay described here, protein A (Staphylococcus aureus) conjugated Acceptor beads are used together with streptavidin coated Donor beads (Perkin Elmer 6760617M). The Acceptor beads are pre-incubated with Fc-tagged recombinant human RAGE (rhRAGE-Fc) allowing binding of the rhRAGE-Fc to protein A on the beads. Biotinylated human S100A9 (biot-hS100A9) is pre-incubated with the low molecular test compounds. The pre-mixes are then added to the wells of a micro-plate and incubated allowing interaction between biot-hS100A9 and rhRAGE-Fc. Subsequent addition of streptavidin coated Donor beads causes binding of the streptavidin to the biotinylated hS100A9. After an additional incubation the signal is measured.
Without inhibitory compounds, the interaction of biot-hS100A9 to rhRAGE-Fc will bring the Acceptor and Donor beads in close proximity thus generating a high signal. With an inhibitor present the complex will not form resulting in a decreased signal. The assay is illustrated in FIG. 1.
Chemicals and Reagents. • AlphaScreen® General IgG (Protein A) Detection Kit, (PerkinElmer 6760617M) • HBS-P buffer (GE Healthcare, BR-1003-68) • HBS-N buffer (GE Healthcare, BR-1003-69) • CaCl2 in HBS-P • ZnCl2 in Milli-Q water • DMSO • Biotinylated hS100A9, (biotinylated via cystein by EZ-link Iodoacetyl-PEG2-Biotin reagent (Pierce no. 21334), in HBS-N • rhRAGE-Fc (R&D Systems, 1145-RG-50), in HBS-P
The AlphaScreen assay method is used for screening of the inhibitory effect of different compound samples at fixed concentrations or for IC50 determination by varying the compound concentrations. Samples of test compounds and references are prepared from solutions in DMSO. Relevant reference inhibitors and DMSO are used as controls for defined inhibition and non-inhibition, respectively in the assay. The percent inhibition in assay for test compounds and references are calculated by comparing their obtained assay signals with the signal values for the control with only DMSO (no compound).
Assay concentration of biotinylated hS100A9 and rhRAGE-Fc are batch dependent, and are determined and defined by separate cross-titration experiments using this AlphaScreen inhibition method to verify the optimal setup regarding signal strength and achievement of a defined inhibition with relevant reference compounds. The Final assay concentrations of Acceptor and Donor beads are 20 μg/mL.
Assay buffer is prepared by adding CaCl2 and ZnCl2 to HBS-P and is used freshly prepared in the experiment.
Biotin-hS100A9 solution for the experiment is prepared by dilution of appropriate amount of stock solution biot-hS100A9 in assay buffer (with CaCl2 and ZnCl2) and incubation in room temperature for 30 minutes.
rhRAGE-Fc solution for the experiment is prepared by dilution appropriate amount of rhRAGE-Fc stock in assay buffer.
Protein A Acceptor beads are diluted in assay buffer and are added to an equal volume of the prepared diluted rhRAGE-Fc solution. The beads are light sensitive. The vial is covered with aluminum foil and incubated at room temperature in the dark until biot-hS100A9+compound incubation is finished (see below). […]

Row | Compound | IC50 [nM]
1 | CC(C)(C)C1CCc2c(sc3nc(C(=O)NC#N)cn23)C1 (stereo not drawn) [Example 58, 10-tert-Butyl-N-cyano-7-thia-2,5-diazatricyclo[6.4.0.0^2,6]dodeca-1(8),3,5-triene-4-carboxamide] | 640
2 | O=C(O)C1CN2C(=N1)Sc1c2ccc(Cl)c1Cl (stereo not drawn) [Example 185, 9,10-Dichloro-7-thia-2,5-diazatricyclo[6.4.0.0^2,6]dodeca-1(8),5,9,11-tetraene-4-carboxylic acid] | 450
3 | O=C(O)C(O)c1cn2c(n1)sc1c(Cl)c(Cl)ccc12 (stereo not drawn) [Example 188, 2-{9,10-Dichloro-7-thia-2,5-diazatricyclo[6.4.0.0^2,6]dodeca-1(8),3,5,9,11-pentaen-4-yl}-2-hydroxyacetic acid] | 2190
4 | COc1ccc(-c2c(C(=O)O)nc3sc4c(n23)CCC(C(C)(C)C)C4)cc1 (stereo not drawn) [Example 190, 10-tert-Butyl-3-(4-methoxyphenyl)-7-thia-2,5-diazatricyclo[6.4.0.0^2,6]dodeca-1(8),3,5-triene-4-carboxylic acid] | 1680
5 | Cc1c(C(=O)O)nc2sc3c(n12)CCC(C(C)(C)C)C3 (stereo not drawn) [Example 195, 10-tert-Butyl-3-methyl-7-thia-2,5-diazatricyclo[6.4.0.0^2,6]dodeca-1(8),3,5-triene-4-carboxylic acid] | 240
6 | CC(C)(C)C1CCc2c(sc3nc(C(=O)O)c(NS(C)(=O)=O)n23)C1 (stereo not drawn) [Example 196, 10-tert-Butyl-3-methanesulfonamido-7-thia-2,5-diazatricyclo[6.4.0.0^2,6]dodeca-1(8),3,5-triene-4-carboxylic acid] | 490
7 | O=C(O)c1cn2c(n1)sc1c(Cl)ccc(Cl)c12 [Example 197, 9,12-Dichloro-7-thia-2,5-diazatricyclo[6.4.0.0^2,6]dodeca-1(8),3,5,9,11-pentaene-4-carboxylic acid] | 1440
8 | O=C(O)c1cn2c(n1)sc1c(OC(F)(F)F)cccc12 [Example 198, 9-(Trifluoromethoxy)-7-thia-2,5-diazatricyclo[6.4.0.0^2,6]dodeca-1(8),3,5,9,11-pentaene-4-carboxylic acid] | 1560
9 | CC1(C)Cc2c(sc3nc(C(=O)O)c(I)n23)C(C)(C)C1 [Example 199, 3-Iodo-9,9,11,11-tetramethyl-7-thia-2,5-diazatricyclo[6.4.0.0^2,6]dodeca-1(8),3,5-triene-4-carboxylic acid] | 530
10 | O=C(O)c1cn2c(n1)sc1cc(SC(F)(F)F)ccc12 [Example 201, 10-[(Trifluoromethyl)sulfanyl]-7-thia-2,5-diazatricyclo[6.4.0.0^2,6]dodeca-1(8),3,5,9,11-pentaene-4-carboxylic acid] | 1470
11 | CN(C)Cc1c(C(=O)O)nc2sc3c(Cl)c(Cl)ccc3n12 [Example 203, 9,10-Dichloro-3-[(dimethylamino)methyl]-7-thia-2,5-diazatricyclo[6.4.0.0^2,6]dodeca-1(8),3,5,9,11-pentaene-4-carboxylic acid] | 780
12 | O=C(O)c1cn2c(n1)sc1c(Cl)cc(Cl)cc12 [Example 204, 9,11-Dichloro-7-thia-2,5-diazatricyclo[6.4.0.0^2,6]dodeca-1(8),3,5,9,11-pentaene-4-carboxylic acid] | 940
13 | CC(C)(C)c1ccc2c(c1)sc1nc(C(=O)O)cn12 [Example 206, 10-tert-Butyl-7-thia-2,5-diazatricyclo[6.4.0.0^2,6]dodeca-1(8),3,5,9,11-pentaene-4-carboxylic acid] | 960
14 | CC1(C)Cc2c(sc3nc(C(=O)O)c(Cl)n23)C(C)(C)C1 [Example 207, 3-Chloro-9,9,11,11-tetramethyl-7-thia-2,5-diazatricyclo[6.4.0.0^2,6]dodeca-1(8),3,5-triene-4-carboxylic acid] | 780
15 | O=C(O)c1cn2c(n1)sc1cc(OCc3ccccc3)ccc12 [Example 208, 10-(Benzyloxy)-7-thia-2,5-diazatricyclo[6.4.0.0^2,6]dodeca-1(8),3,5,9,11-pentaene-4-carboxylic acid] | 2260
16 | O=C(O)c1cn2c(n1)sc1c(F)c(F)ccc12 [Example 209, 9,10-Difluoro-7-thia-2,5-diazatricyclo[6.4.0.0^2,6]dodeca-1(8),3,5,9,11-pentaene-4-carboxylic acid] | 1020
17 | O=C(O)c1cn2c(n1)sc1c(Br)cccc12 [Example 212, 9-Bromo-7-thia-2,5-diazatricyclo[6.4.0.0^2,6]dodeca-1(8),3,5,9,11-pentaene-4-carboxylic acid] | 700
18 | O=C(O)c1cn2c(n1)sc1c(Cl)c(OC(F)(F)F)ccc12 [Example 214, 9-Chloro-10-(trifluoromethoxy)-7-thia-2,5-diazatricyclo[6.4.0.0^2,6]dodeca-1(8),3,5,9,11-pentaene-4-carboxylic acid] | 640
19 | COc1c(Cl)ccc2c1sc1nc(C(=O)O)cn12 [Example 217, 10-Chloro-9-methoxy-7-thia-2,5-diazatricyclo[6.4.0.0^2,6]dodeca-1(8),3,5,9,11-pentaene-4-carboxylic acid] | 1090
20 | COc1ccc2c(sc3nc(C(=O)O)cn32)c1Cl [Example 218, 9-Chloro-10-methoxy-7-thia-2,5-diazatricyclo[6.4.0.0^2,6]dodeca-1(8),3,5,9,11-pentaene-4-carboxylic acid] | 1580
21 | CS(=O)(=O)NC(=O)c1cn2c(n1)sc1c(Cl)c(OC(F)(F)F)ccc12 [Example 220, 9-Chloro-N-methanesulfonyl-10-(trifluoromethoxy)-7-thia-2,5-diazatricyclo[6.4.0.0^2,6]dodeca-1(8),3,5,9,11-pentaene-4-carboxamide] | 770
22 | CC1(C)Cc2c(sc3nc(C(=O)O)c(Br)n23)C(C)(C)C1 [Example 222, 3-Bromo-9,9,11,11-tetramethyl-7-thia-2,5-diazatricyclo[6.4.0.0^2,6]dodeca-1(8),3,5-triene-4-carboxylic acid] | 690
23 | CC1(C)Cc2c(sc3nc(C(=O)O)c(C4CN(C(=O)OC(C)(C)C)C4)n23)C(C)(C)C1 [Example 225, 3-{1-[(tert-Butoxy)carbonyl]azetidin-3-yl}-9,9,11,11-tetramethyl-7-thia-2,5-diazatricyclo[6.4.0.0^2,6]dodeca-1(8),3,5-triene-4-carboxylic acid] | 310
24 | O=C(O)C1CN2C(=N1)Sc1c2ccc(F)c1Cl (stereo not drawn) [Example 228, 9-Chloro-10-fluoro-7-thia-2,5-diazatricyclo[6.4.0.0^2,6]dodeca-1(8),5,9,11-tetraene-4-carboxylic acid] | 260
25 | C#Cc1c(C(=O)O)nc2sc3c(n12)CC(C)(C)CC3(C)C [Example 229, 3-Ethynyl-9,9,11,11-tetramethyl-7-thia-2,5-diazatricyclo[6.4.0.0^2,6]dodeca-1(8),3,5-triene-4-carboxylic acid] | 740
26 | O=C(O)c1cn2c(n1)sc1cc(Cl)c(OC(F)(F)F)cc12 [Example 230, 10-Chloro-11-(trifluoromethoxy)-7-thia-2,5-diazatricyclo[6.4.0.0^2,6]dodeca-1(8),3,5,9,11-pentaene-4-carboxylic acid] | 980
27 | CS(=O)(=O)Nc1c(C(=O)O)nc2sc3c(Cl)c(F)ccc3n12 [Example 232, 9-Chloro-10-fluoro-3-methanesulfonamido-7-thia-2,5-diazatricyclo[6.4.0.0^2,6]dodeca-1(8),3,5,9,11-pentaene-4-carboxylic acid] | 200
